Laboratory results reported in ChEMBL document CHEMBL1795249, “Triazole-linked reduced amide isosteres: an approach for the fragment-based drug discovery of anti-Alzheimer's BACE1 inhibitors” (Bioorg Med Chem Lett, 2011).

Target: Beta-secretase 1 (Homo sapiens, UniProt P56817)
Assay: Inhibition of BACE1 by cell-free FRET assay

Beta-secretase 1, sequence (P56817 whole entry): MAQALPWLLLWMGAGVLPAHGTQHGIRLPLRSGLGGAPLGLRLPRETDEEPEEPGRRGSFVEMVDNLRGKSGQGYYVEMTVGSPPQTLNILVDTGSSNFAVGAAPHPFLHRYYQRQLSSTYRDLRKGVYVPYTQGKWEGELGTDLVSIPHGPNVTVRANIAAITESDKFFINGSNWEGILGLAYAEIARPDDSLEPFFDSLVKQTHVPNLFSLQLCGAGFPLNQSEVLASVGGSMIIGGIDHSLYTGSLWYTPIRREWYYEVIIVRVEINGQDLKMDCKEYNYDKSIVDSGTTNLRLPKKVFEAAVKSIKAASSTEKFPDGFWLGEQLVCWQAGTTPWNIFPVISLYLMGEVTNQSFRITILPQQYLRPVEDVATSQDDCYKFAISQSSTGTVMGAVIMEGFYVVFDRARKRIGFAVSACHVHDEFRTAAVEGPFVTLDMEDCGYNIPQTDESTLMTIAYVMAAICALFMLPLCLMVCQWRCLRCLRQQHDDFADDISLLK

Row | SMILES | IC50 [µM]
1 | COc1cccc(CNC[C@H](Cc2ccccc2)n2cc(-c3cc(C(=O)N[C@H](C)c4ccccc4)cc(N(C)S(C)(=O)=O)c3)nn2)c1 | 7
2 | C#Cc1cccc(NC2CC(O)C(Nc3cccc(-c4cn([C@H](CNCc5cccc(Br)c5)Cc5ccccc5)nn4)c3)CC2O)c1 (mixture of isomers) | 3.4
3 | C[C@@H](NC(=O)c1cc(-c2cn([C@H](CNCc3cccc(Br)c3)Cc3ccccc3)nn2)cc(N(C)S(C)(=O)=O)c1)c1ccccc1 | 2
4 | C#Cc1cccc(NC2CC(Nc3cccc(-c4cn([C@H](CNCc5cccc(Br)c5)Cc5ccccc5)nn4)c3)C(O)CC2O)c1 (mixture of isomers) | 2.4
